In test [1] the test system is E. coli 0111:B4 (smooth) bacteria. Kind of test: Radial diffusion bactericidal assay, E. coli 0111:B4. It counts as cell-based. As to conditions: radial diffusion; PROBIT analysis; E. coli O111:B4 (smooth).
In test [2] the test system is rough mutant E. coli J5 bacteria. Kind of test: Radial diffusion bactericidal assay, E. coli J5. In kind it is cell-based. The conditions noted are these: radial diffusion; for pmol added to well to achieve a 30 mm^2 bactericidal zone, E. coli J5: PROBIT analysis, E. coli J5 (rough); for bactericidal activity (in words): E. coli J5. On the procedure: BPI proteolytic fragments produced according to Example 1 were screened for bactericidal effects using rough mutant E. coli J5 bacteria in a radial diffusion assay. Specifically, an overnight culture of E. coli J5 was diluted 1:50 into fresh tryptic soy broth and incubated for 3 hours at 37° C. to attain log phase growth of the culture. Bacteria were then pelleted at 3,000 rpm for 5 minutes in a Sorvall RT6000B centrifuge (Sorvall Instruments, Newton, Conn.). 5 mL of 10 mM sodium phosphate buffer (pH 7.4) was added and the preparation was re-pelleted. […] The bacteria were diluted to 4×10^6 CFU/mL in 10 mL of molten underlayer agarose (at approximately 45° C.) and inverted repeatedly to mix in 15 mL polypropylene tubes conventionally used for this purpose.
The entire contents of such tubes were then poured into a level square petri dish and distributed evenly by rocking the dish side-to-side. […] A series of wells were then punched into the hardened agarose using a sterile 3 mm punch attached to a vacuum apparatus. The punch was sterilized with 100% alcohol and allowed to air dry prior to use to avoid contaminating the bacterial culture.
5 or 10 μL of each of the BPI fragments were carefully pipetted into each well. As a negative control, dilution buffer (pH 8.3) was added to a separate well, and rBPI23 at concentrations of 5 μg/mL and 1 μg/mL were also added as positive controls. Each plate was incubated at 37° C. for 3 hours, and then 10 mL of molten overlayer agarose (at approximately 45° C.) was added into the level petri dish, allowed to harden and incubated overnight at 37° C. […] The bacterial zones were measured with a micrometer.

The subject of a further test is Staphylococcus aureus. Kind of test: Radial diffusion bactericidal assay, Staphylococcus aureus. It counts as cell-based. As to conditions: radial diffusion; PROBIT analysis; S. aureus.
Test [3] is described as follows: 3H-heparin binding assay (affinity and capacity). As to conditions: for Heparin Capacity: heparin bound at saturation; for heparin binding capacity: direct heparin binding assay; for cpm ^3H-Heparin bound: 100 picomoles of each fragment per well, saturating 3H-heparin 20 μg/mL, mean of duplicate wells ± range. As for the experimental part:
Briefly, each fragment was added to wells of a 96-well microtiter plate having a polyvinylidene difluoride membrane (Immunobilon-P, Millipore, Bedford, Mass.) disposed at the bottom of the wells. […] Positive control wells contained varying amounts of rBPI23. […] DuPont-NEN, Wilmington, Del.) were made in the blocking buffer and incubated in the BPI peptide-containing wells for one hour at 4° C. The unbound heparin was aspirated and the wells were washed three times with blocking buffer, dried and removed for quantitation in a liquid scintillation counter (Model 1217, LKB, Gaithersburg, Md.). Although BSA in the blocking buffer did show a low affinity and capacity to bind heparin, this was considered physiologically irrelevant and the background was routinely subtracted from the test compound signal.

The mark [4] stands for this setting: read-out: Kd of heparin binding.

We go through 27 substances from patent publication US20040023884A1, “Biologically active peptides from functional domains of bactericidal/permeability-increasing protein and uses thereof” (priority 1993, published 2004).

Read-outs that look alike come from different tables or passages of the source. Square brackets hold non-standard residues; d marks the D form. Ends that are not written are not given here. 1Nal = N[C@@H](Cc1cccc2ccccc12)C(=O)O

Consider “IKISGKWKAAβ-(1-naphthyl)Aβ-(1-naphthyl)RFLK (IKISGKWKA[1Nal][1Nal]RFLK) [BPI.121]”, for which the “pmol added to well to achieve a 30 mm^2 bactericidal zone, E. coli O111:B4” value (“pmol added to well … E. coli O111:B4” for short) in test [1] was 1,856.40 pmol. The “pmol added to well to achieve a 30 mm^2 bactericidal zone, E. coli J5” value (from here on “pmol added to well … E. coli J5”) in test [2] is 154.35 pmol. Moreover, the “pmol added to well to achieve a 30 mm^2 bactericidal zone, S. aureus” value (“pmol added to well … S. aureus” for short) in the test on Staphylococcus aureus is on record as 941,388.07 pmol.
As to GTAALQKELKRIKIP [BPI.54], the “pmol added to well … E. coli O111:B4” value in test [1] is given as “b (no detectable activity up to 5 μg/well)”. For the same substance, in test [2], the “bactericidal activity (in words)” value was “little or no bactericidal activity” and the “pmol added to well … E. coli J5” value is given as “b (no detectable activity up to 5 μg/well)”. Moreover, in test [3], the “heparin binding capacity (in words)” value is given as “low heparin binding capacity” and the “Heparin Capacity” value amounted to 64.3 ng. Moreover, the Kd in test [3] (read-out: Heparin Affinity) stood at 0.237 µM.
For “KSKVGWLIQLFHKAβ-(1-naphthyl) (KSKVGWLIQLFHK[1Nal]) [BPI.111]”, the “pmol added to well … E. coli O111:B4” value in test [1] is reported as 7,232.08 pmol. Besides, the “pmol added to well … E. coli J5” value in test [2] amounted to 969.00 pmol. In addition, the “pmol added to well … S. aureus” value in the test with Staphylococcus aureus is recorded as 12,467.42 pmol.
For CIKISGKWKAQKRFLKC [BPI.65 (ox.)], the “Heparin Capacity” value in test [3] came out at 190.6 ng. The Kd in test [3] (read-out: Heparin Affinity) was found to be 0.16 µM.
For CIKISGKWKAQKRFLKC [BPI.65 (red.)], in test [2], the “bactericidal activity (in words)” value was “highly bactericidal”. In addition, in test [3], the “heparin binding capacity (in words)” value is “extremely high heparin capacity” and the “Heparin Capacity” value is 279.6 ng. In addition, the Kd in test [3] (read-out: Heparin Affinity) was found to be 0.216 µM.
As to “Limulus anti-LPS factor [LALF, reference compound]”, in test [3], the heparin binding capacity was 195.3 ng heparin/2 μg peptide and the “Heparin Capacity” value was 195.3 ng. The Kd in test [3] (read-out: Heparin Affinity) stood at 1.29 µM. The Kd in test [3] (setting [4]) came out at 1.29 µM.
For KSKVWLIQLFHKK [BPI.11], the “pmol added to well … E. coli O111:B4” value in test [1] is “b (no detectable activity up to 5 μg/well)”. Moreover, the “pmol added to well … E. coli J5” value in test [2] is on record as 638.30 pmol. The “Heparin Capacity” value in test [3] was found to be 290.5 ng. In addition, in test [3] (read-out: Heparin Affinity), the Kd was found to be 0.744 µM.
In the case of KSKVGWLIQFFHKK [BPI.113], the “pmol added to well … E. coli O111:B4” value in test [1] is reported as 8,671.73 pmol. The “pmol added to well … E. coli J5” value in test [2] was found to be 270.66 pmol. Besides, in the test on Staphylococcus aureus, the “pmol added to well … S. aureus” value was “b (no detectable activity up to 5 μg/well)”.
In the same order, the values of “IKISGKAβ-(1-naphthyl)KAAβ-(1-naphthyl)Aβ-(1-naphthyl)RFLK (IKISGK[1Nal]KA[1Nal][1Nal]RFLK) [BPI.122]” are 2,123.57 pmol, 179.89 pmol and 2,631,667.24 pmol.
On to “KSKVKAβ-(1-naphthyl)LIQLFHKK (KSKVK[1Nal]LIQLFHKK) [BPI.116]”, for which the “pmol added to well … E. coli O111:B4” value in test [1] is 37,539.59 pmol. Besides, the “pmol added to well … E. coli J5” value in test [2] worked out at 73.82 pmol. Moreover, in the test on Staphylococcus aureus, the “pmol added to well … S. aureus” value is on record as “b (no detectable activity up to 5 μg/well)”.
As to “Polymyxin B peptide [PMB Peptide, reference compound]”, in test [3], the heparin binding capacity amounted to 58.0 ng heparin/2 μg peptide and the “Heparin Capacity” value is 58.01 ng. The Kd in test [3] (read-out: Heparin Affinity) turned out to be 0.309 µM.
Turning to “C3: CNBr fragment of rBPI23, residues 71-100 (VPNVGLKFSISNANIKISGKWKAQKRFLKM; CNBr fragment; UniProt P17213 102-131, looked up, fragment)”, the “cpm ^3H-Heparin bound” value in test [3] is recorded as 81,655 ± 3,163 cpm.
For the substance KSKVGWLIYLFHKK [BPI.125], in test [1], the “pmol added to well … E. coli O111:B4” value is 11,306.79 pmol. The “pmol added to well … E. coli J5” value in test [2] is reported as 428.85 pmol. The “pmol added to well … S. aureus” value with Staphylococcus aureus is listed as “b (no detectable activity up to 5 μg/well)”.
On to KSKVGWLISLFHKK [BPI.104], for which the “pmol added to well … E. coli O111:B4” value in test [1] is 1,376.42 pmol. Moreover, the “pmol added to well … E. coli J5” value in test [2] is 385.85 pmol. For the same substance, the “pmol added to well … S. aureus” value in the test on Staphylococcus aureus is 27,933.64 pmol.
In the same order, the values of “BPI.65(Ox) (CIKISGKWKAQKRFLKC; not fully specified (bridges); also: oxidized)” are “b (no detectable activity up to 5 μg/well)”, 849.79 pmol and 11,960.00 pmol.
Take CIKISGKWKAQKRPLC [BPI.57]: the “pmol added to well … E. coli O111:B4” value in test [1] was “b (no detectable activity up to 5 μg/well)”. In addition, in test [2], the “pmol added to well … E. coli J5” value worked out at 514.03 pmol. Besides, the “pmol added to well … S. aureus” value in the test with Staphylococcus aureus is given as “b (no detectable activity up to 5 μg/well)”.
As for “A2: Asp-N fragment of rBPI23, residues 15-38 (DYASQQGTAALQKELKRIKIPDYS; Asp-N fragment; UniProt P17213 46-69, looked up, fragment)”, the “cpm ^3H-Heparin bound” value in test [3] is reported as 3,042 ± 162 cpm.
Consider KSKVGFLIQLFHKK [BPI.127], for which, in test [1], the “pmol added to well … E. coli O111:B4” value is “b (no detectable activity up to 5 μg/well)”. Further, the “pmol added to well … E. coli J5” value in test [2] stood at 406.01 pmol. Further, the “pmol added to well … S. aureus” value in the test with Staphylococcus aureus was “b (no detectable activity up to 5 μg/well)”.
As for “C6: CNBr fragment of rBPI23, residues 171-196 (NSQVCEKVTNSVSSELQPYFQTLPVM; CNBr fragment; UniProt P17213 202-227, looked up, fragment)”, in test [3], the “cpm ^3H-Heparin bound” value is listed as 26,204 ± 844 cpm.
The substance magainin II amide [reference compound] came in with a heparin binding capacity in test [3] of 437.7 ng heparin/2 μg peptide. Also, the “Heparin Capacity” value in test [3] was 453.7 ng. Further, the Kd in test [3] (read-out: Heparin Affinity) and in test [3] (setting [4]) was 3.17 µM each time.
With SVHVHISKSKVGWLIQLFHKKIESALRNK [BPI.12], the “pmol added to well … E. coli O111:B4” value in test [1] is recorded as “b (no detectable activity up to 5 μg/well)”. In addition, in test [2], the “pmol added to well … E. coli J5” value came to 524.80 pmol. Further, in test [3], the “Heparin Capacity” value was found to be 231.5 ng. Besides, the Kd in test [3] (read-out: Heparin Affinity) is 0.285 µM.
With “C4: CNBr fragment of rBPI23, residues 101-111 (SGNFDLSIEGM; CNBr fragment; UniProt P17213 132-142, looked up, fragment)”, the “cpm ^3H-Heparin bound” value in test [3] is 4,686 ± 4 cpm.
In the case of “C2: CNBr fragment of rBPI23, residues 57-70 (DIREFQLPSSQISM; CNBr fragment; UniProt P17213 88-101, looked up, fragment)”, the “cpm ^3H-Heparin bound” value in test [3] is on record as 6,262 ± 182 cpm.
As to IKISGKWKAAARFLK [BPI.45], the “pmol added to well … E. coli O111:B4” value in test [1] was 4,849.00 pmol. Further, in test [2], the “pmol added to well … E. coli J5” value is 1,301.80 pmol. Moreover, the “Heparin Capacity” value in test [3] worked out at 160.7 ng. The Kd in test [3] (read-out: Heparin Affinity) amounted to 0.153 µM.
For “Cecropin A (KWKLFKKIEKVGQNIRDGIIKAGPAVAVVGQATQIAK; ends and bridges not checked; UniProt P01507 27-63, looked up) [antibacterial peptide of lepidopteran insects (Sigma), reference compound]”, in test [3], the heparin binding capacity is listed as 242 ng heparin/2 μg peptide and the “Heparin Capacity” value worked out at 242.0 ng. In addition, in test [3] (read-out: Heparin Affinity), the Kd turned out to be 0.395 µM. In test [3] (setting [4]), the Kd was 0.395 µM.
Turning to “A3: Asp-N fragment of rBPI23, residues 39-56 (DSFKIKHLGKGHYSFYSM; UniProt P17213 70-87, looked up, fragment)”, the “cpm ^3H-Heparin bound” value in test [3] is recorded as 8,664 ± 128 cpm.
On to “85-99: 15-mer pin-synthesized peptide corresponding to amino acids 85-99 of BPI, with cyclo(lysylprolyl) moiety on the carboxyl-terminus (IKISGKWKAQKRFLK-{cyclo(lysylprolyl)}; UniProt P17213 116-130, looked up, fragment)”, for which the “bactericidal activity (in words)” value in test [2] is listed as “found to have bactericidal activity”.
